Tests used:
morning glory = experiment: Field testing of emulsifiable concentrates, post-emergent control (Example 40); assay type: in vivo
Method: (§1) Three dicamba esters, 30a, 32a, and 36a, were formulated as emulsifiable concentrates for field testing. All surfactants are commercial materials from Stepan.
(§2) The formulations were tested in the field. Locations and timing were identical for the three esters, but differed slightly for the diglycolamine control. The esters were compared to the diglycolamine salt of dicamba (CLARITY™) for post-emergent control of three broadleaf weeds: velvetleaf, morning glory, and hemp sesbania. Rates of 280 and 560 g dicamba acid equivalent per hectare were used.

velvetleaf [1] = experiment: as above; assay type: in vivo
Method: as §1, §2

hemp sesbania = experiment: as above; assay type: in vivo
Method: as §1, §2

velvetleaf [2] = experiment: Greenhouse post-emergent control of velvetleaf by emulsifiable concentrates (Example 37); assay type: in vivo
Outline: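 Photo-labile dicamba ester emulsifiable concentrates sprayed post-emergence in the greenhouse on velvetleaf 10-15 cm tall at 140, 280, 420 and 560 g dicamba equivalent per hectare. Percent control scored three weeks after treatment.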

[3] = In vitro photo-release and hydrolytic release of dicamba in an aqueous medium (Example 35); assay type: physicochemical; conditions: 0.01 mM ester, 35° C.
Method: This Example describes the determination of photo-lability and hydrolytic lability of dicamba esters in an aqueous medium. 1 mM solutions of the esters were prepared in acetonitrile (or […] solutions of dicamba diesters). The solutions were then diluted with deionized water to a concentration of 0.01 mM (or 0.005 mM for diesters). The solutions were then transferred to quartz tubes and amber bottles and held in a growth chamber by the procedure of Example 26. A 14-hour day was generally used at a constant temperature of 35° C. Hydrolytic activity was assessed by measuring the increase in dicamba concentration after day zero in the amber (dark) bottles. […] Photolysis manifested itself as increased conversion in the quartz tubes compared to the dark control.

soybeans = experiment: Humidome volatility injury, ester 32a emulsifiable concentrate (Example 32); conditions: humidome, dicamba 0.6% and glyphosate 1.2% acid equivalent, 14 days after treatment
Description: […] The mixtures were sprayed at a 10 gallon per acre (93.5 liters per hectare) rate on soil in a plastic container (“humidome”) with a transparent lid. One soil container was sprayed with water as a control. Four glyphosate-tolerant, dicamba-sensitive soy plants between V2 and V3 stage were immediately placed on the sprayed soil and the domes attached to the trays with binder clips. The soy plants were in pots placed directly on the soil but with aluminum foil wrapped around the bottom to prevent uptake of dicamba or dicamba esters through the roots.
The closed containers were held for 24 hours in a growth chamber which was maintained at 35° C. with 40% relative humidity. […] At this time plant injury and growth stage were assessed compared to the control treated with water only.

broadleaf weeds = experiment: Control of broadleaf weeds by ester concentrates (statements of the description); assay type: in vivo; conditions: emulsifiable and suspension concentrates; Sesbania macrocarpa, morning glory, velvetleaf, Palmer amaranth, fat hen, sicklepod
[4] = system: three broadleaf weeds: velvetleaf, morning glory, and hemp sesbania; experiment: Field testing of Example 40, overall post-emergent activity in words; assay type: in vivo; conditions: 280 and 560 g dicamba acid equivalent per hectare
Method: as §1, §2

[5] = 280 g dicamba acid equivalent per hectare
[6] = 560 g dicamba acid equivalent per hectare

COc1c(Cl)ccc(Cl)c1C(=O)Oc1ccc(=O)n(CCC(C)=O)n1 [Ester 32a]
% control 19 days after treatment, 280 g/ha, Morning glory (morning glory; [5]): 70 ± 24%
% control 19 days after treatment, 560 g/ha, Morning glory (morning glory; [6]): 87 ± 10%
% control 19 days after treatment, 280 g/ha, Velvetleaf (velvetleaf [1]; [5]): 59 ± 28%
% control 19 days after treatment, 560 g/ha, Velvetleaf (velvetleaf [1]; [6]): 68 ± 26%
% control 19 days after treatment, 280 g/ha, Hemp sesbania (hemp sesbania; [5]): 76 ± 5%
% control 19 days after treatment, 560 g/ha, Hemp sesbania (hemp sesbania; [6]): 91 ± 8%
pest or weed control at 140 g/ha (velvetleaf [2]; Abutilon theophrasti, post-emergence, 504 h, read-out: % Control of velvetleaf, 140 g/ha): 12.5%
pest or weed control at 280 g/ha (velvetleaf [2]; Abutilon theophrasti, post-emergence, 504 h, read-out: % Control of velvetleaf, 280 g/ha): 19.2%
pest or weed control at 420 g/ha (velvetleaf [2]; Abutilon theophrasti, post-emergence, 504 h, read-out: % Control of velvetleaf, 420 g/ha): 33.3%
pest or weed control at 560 g/ha (velvetleaf [2]; Abutilon theophrasti, post-emergence, 504 h, read-out: % Control of velvetleaf, 560 g/ha): 37.5%
post-emergent efficacy on velvetleaf compared with the salt, in words (velvetleaf [2]; greenhouse, emulsifiable concentrates): reduced post-emergent efficacy
Conversion to Dicamba, Dark, Day 0 ([3]; amber (dark) bottle, Day 0): 5%
Conversion to Dicamba, Dark, Day 1 ([3]; amber (dark) bottle, Day 1): 12%
Conversion to Dicamba, Dark, Day 2 ([3]; amber (dark) bottle, Day 2): 14%
Conversion to Dicamba, Dark, Day 3 ([3]; amber (dark) bottle, Day 3): 17%
Conversion to Dicamba, Dark, Day 4 ([3]; amber (dark) bottle, Day 4): 22%
Conversion to Dicamba, Dark, Day 7 ([3]; amber (dark) bottle, Day 7): 34%
Conversion to Dicamba, Dark, Day 14 ([3]; amber (dark) bottle, Day 14): 41%
Conversion to Dicamba, Dark, Day 21 ([3]; amber (dark) bottle, Day 21): 55%
Conversion to Dicamba, Dark, Day 28 ([3]; amber (dark) bottle, Day 28): 70%
Conversion to Dicamba, Light, Day 0 ([3]; quartz tube, 14-hour day, Day 0): 5%
Conversion to Dicamba, Light, Day 1 ([3]; quartz tube, 14-hour day, Day 1): 14%
Conversion to Dicamba, Light, Day 2 ([3]; quartz tube, 14-hour day, Day 2): 16%
Conversion to Dicamba, Light, Day 3 ([3]; quartz tube, 14-hour day, Day 3): 18%
Conversion to Dicamba, Light, Day 4 ([3]; quartz tube, 14-hour day, Day 4): 22%
Conversion to Dicamba, Light, Day 7 ([3]; quartz tube, 14-hour day, Day 7): 27%
Conversion to Dicamba, Light, Day 14 ([3]; quartz tube, 14-hour day, Day 14): 44%
Conversion to Dicamba, Light, Day 21 ([3]; quartz tube, 14-hour day, Day 21): 50%
Conversion to Dicamba, Light, Day 28 ([3]; quartz tube, 14-hour day, Day 28): 59%
average injury to soybeans (soybeans): 19%
control of a number of broadleaf weeds in field testing, in words (broadleaf weeds): proven effective
post-emergent activity compared with the dicamba salt, in words [4]: intermediate activity
